Source: patent US11926578B1, “8-(4-nitroxybenzylideneamino)naphthalene-1,3-disulfonic acid as an antioxidant compound” (KING FAISAL UNIVERSITY, priority 2023, dated 2024)

Test: DPPH radical scavenging antioxidant test (absorbance at 517 nm)
Format: biochemical
Settings: radical scavenging inhibition of DPPH, 0.2 mL DPPH (0.75 mM), compound 3 μM in ethanol, 30 min in the dark
Protocol: The antioxidant properties of the 8-(4-nitroxybenzylideneamino)naphthalene-1,3-disulfonic acid were studied by adding 0.2 mL DPPH (0.75 mM)) to compound 8-(4-nitroxybenzylideneamino)naphthalene-1,3-disulfonic acid (III) (3 μM) in ethanol. After 30 min of incubation in the dark, the absorbance was read against a blank at 517 nm. Ascorbic acid (vitamin C) was used as standard antioxidants (positive control). A blank sample was prepared by 0.2 ml of DPPH in 3 ml ethanol. A negative control sample was run using ethanol instead of the sample. The radical scavenging inhibition was calculated using the following equation: […]

Compound: O=C1O[C@H]([C@@H](O)CO)C(O)=C1O [vit c, Ascorbic acid]
- Inhibition: 74%
